Data from US20210087172A1, “FACTOR XIIa INHIBITORS” (UNIVESITY OF LEEDS, priority 2018, published 2021).

Legend:
Format in all cases: biochemical
[1] = target: T1, FXIIa alpha (Human) (Homo sapiens, UniProt P00748); assay: Determination of Factor XIIa inhibition, chromogenic substrate S-2302; settings: 10 nM FXIIa, 450 μM S-2302, 37° C., pH 7.4; Ki converted from IC50
T1 construct: FXIIa alpha
T1 sequence (P00748 373-615 limits assumed): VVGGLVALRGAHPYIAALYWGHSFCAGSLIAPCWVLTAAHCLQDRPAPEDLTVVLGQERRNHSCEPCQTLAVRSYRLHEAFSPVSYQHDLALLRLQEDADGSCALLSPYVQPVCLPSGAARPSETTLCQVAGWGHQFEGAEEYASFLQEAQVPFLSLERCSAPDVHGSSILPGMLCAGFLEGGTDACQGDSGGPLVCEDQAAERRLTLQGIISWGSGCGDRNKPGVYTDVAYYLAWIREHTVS
T1 sequence (P00748 20-372 partner limits assumed): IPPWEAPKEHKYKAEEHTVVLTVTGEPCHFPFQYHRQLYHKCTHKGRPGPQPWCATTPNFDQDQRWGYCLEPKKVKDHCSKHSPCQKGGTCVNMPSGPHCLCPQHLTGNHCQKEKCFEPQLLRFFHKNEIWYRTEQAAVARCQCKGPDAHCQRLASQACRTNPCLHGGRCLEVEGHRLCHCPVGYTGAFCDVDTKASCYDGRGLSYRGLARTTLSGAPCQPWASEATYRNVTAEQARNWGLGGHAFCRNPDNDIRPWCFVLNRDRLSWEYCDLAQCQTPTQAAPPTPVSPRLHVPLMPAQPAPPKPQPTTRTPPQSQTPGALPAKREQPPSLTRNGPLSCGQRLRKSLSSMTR
Procedure: (§1) The activities of the compounds of the invention have been determined in vitro using the following assays protocols for the screening of activity of FXIa and other proteases. Each of these assays were performed in a purified system employing the use of chromogenic assays in microplate plate wells. Chromogenic peptide substrates mimicking natural protein substrates are attached via an amide bond to a chromogenic group. Paranitroaniline (pNA) is released from the peptide following catalyses by the proteolytic enzyme; the absorbance increases and can be monitored at 405 nm.
(§2) All compounds were dissolved in 100% (v/v) DMSO to a stock concentration of 10 mM, the highest concentration of compound used in each assay is 500 μM. The final concentrations of DMSO were 5% (v/v) in 50 mM Tris 137 mM NaCl pH 7.4. Where no test compound was added a final concentration of 5% DMSO was employed.
[…] activity was measured using a chromogenic substrate S-2302 (Chromogenix). Various concentrations of compound were incubated with 10 nM of FXIIa and incubated at 37° C. for 10 minutes in 50 mM Tris, 137 mM NaCl, pH 7.4, prior to the addition of a final concentration of 450 μM S-2302 chromogenic substrate. Kinetic readings at 405 nm were monitored every 12 secs for a total duration of 3 hours at 37° C. Gradients of initial rates were determined and employed to calculate IC50 values. Values of IC50 were converted to Ki values based on the formula:
(§3) Ki=IC50/(1+[Substrate]/Km)
The activity of the compounds of the invention has been categorised based on the Ki values, the categories being “*”, “**” and “***”. […] The category refers to compounds with a Ki value of 0.2 μM to 2 μM.

[2] = target: FXa (human) (Homo sapiens, UniProt P00742); assay: Determination of selectivity: FXa chromogenic assay (S2765 substrate); settings: fold selectivity for FXIIa over FXa; FXa 5 nM, S2765 350 μM
Procedure: as §1, §2
(§4) To determine selectivity of test compounds, these test compounds were assayed for inhibitory activity against other serine proteases including FXa and thrombin. Essentially compounds at increasing concentrations were incubated with each enzyme: FXa (5 nM) and thrombin (5 nM), for 10 mins at 37° C. followed the appropriate chromogenic substrate, S2765 (350 μM), and GPR (250 μM) respectively in 50 mM Tris, 137 mM NaCl, pH 7.4. Chromogenic substrates S2765 was from Chromogenix, and GPR from Bachem. Kinetic readings at 405 nm were monitored every 12 secs for a total duration of 3 hours at 37° C. Gradients of initial rates were determined and employed to calculate IC50 values. Values of IC50 were converted to Ki values based on the formula:
as §3
(§5) Where [Substrate] denotes the concentration of substrate used in the assay and Km is the determined value of each enzyme with its own substrate.
The fold selectivity for FXIIa over FXa for the compounds of the invention has been categorised based on the fold selectivity values, the categories being “o”, “oo” and “ooo”. The category “o” refers to fold selectivity values less than 10. The category “oo” refers to a fold selectivity value of 10 to 100. The category “ooo” refers to fold selectivity values greater than 100.

[3] = target: T2, Thrombin (human) (Homo sapiens, UniProt P00734); assay: Determination of selectivity: thrombin chromogenic assay (GPR substrate); settings: fold selectivity for FXIIa over thrombin; thrombin 5 nM, GPR 250 μM
T2 construct: FXa (5 nM) and thrombin (5 nM)
Procedure: as §1, §2, §4, §3, §5
The fold selectivity for FXIIa over thrombin for the compounds of the invention has been categorised based on the fold selectivity values, the categories being “+”, “++” and “+++”. The category “+” refers to fold selectivity values less than 10. The category “++” refers to a fold selectivity value of 10 to 100. The category “+++” refers to fold selectivity values greater than 100.

Sequence of FXa (human) (P00742 235-488 limits assumed): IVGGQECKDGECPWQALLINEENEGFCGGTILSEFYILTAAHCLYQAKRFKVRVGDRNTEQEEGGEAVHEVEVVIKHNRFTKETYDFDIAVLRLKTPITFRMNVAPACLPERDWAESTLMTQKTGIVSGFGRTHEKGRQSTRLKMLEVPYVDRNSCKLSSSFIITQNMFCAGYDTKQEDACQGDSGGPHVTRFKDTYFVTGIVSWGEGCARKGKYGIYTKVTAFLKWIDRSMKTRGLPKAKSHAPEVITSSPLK
Sequence of FXa (human) (P00742 41-179 partner limits assumed): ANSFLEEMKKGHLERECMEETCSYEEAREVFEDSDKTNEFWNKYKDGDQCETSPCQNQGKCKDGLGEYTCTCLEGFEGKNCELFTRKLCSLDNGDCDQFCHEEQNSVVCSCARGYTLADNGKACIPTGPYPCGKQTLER

SMILES | Ki [1] | FXa (human)/FXIIa alpha (human) fold selectivity [2] | Thrombin (human)/FXIIa alpha (human) fold selectivity [3]
Cc1ccc(OC(=O)N2CCN(C(=O)[C@H](N)CCc3ccccc3)[C@H](C(=O)NCc3ccc4c(c3)nnn4C)C2)cc1 [Compound M00934] | > 2000 nM | oo (a fold selectivity value of 10 to 100) | ++ (a fold selectivity value of 10 to 100)
N[C@H](CCC(=O)N1CCCC1)C(=O)N1CCN(C(=O)OCc2ccccc2)C[C@H]1C(=O)NCc1cc2ccncc2[nH]1 [Compound M00951] | 200 to 2000 nM | oo (a fold selectivity value of 10 to 100) | ++ (a fold selectivity value of 10 to 100)
N[C@H](CCC(=O)N1CCCC1)C(=O)N1CCN(C(=O)OCc2ccccc2)C[C@H]1C(=O)NCc1cc2cnccc2[nH]1 [Compound M00971] | < 200 nM | ooo (fold selectivity values greater than 100) | +++ (fold selectivity values greater than 100)
Cn1nnc2cc(CNC(=O)[C@@H]3CN(C(=O)OCc4ccccc4)CCN3C(=O)[C@H](N)CCc3ccccc3)ccc21 [Compound M05098, (S)-4-((R)-2-Amino-4-phenyl-butyryl)-3-[(1-methyl-1H-benzotriazol-5-ylmethyl)-carbamoyl]-piperazine-1-carboxylic acid benzyl ester] | > 2000 nM | oo (a fold selectivity value of 10 to 100) | ++ (a fold selectivity value of 10 to 100)
Cn1nnc2cc(CNC(=O)[C@@H]3CN(C(=O)OCc4ccccc4)CCN3C(=O)[C@H](N)CCC(=O)N3CCCC3)ccc21 [Compound M05212] | > 2000 nM | ooo (fold selectivity values greater than 100) | +++ (fold selectivity values greater than 100)
Cn1nnc2cc(CNC(=O)[C@@H]3C[C@@H](c4ccccc4)CCN3C(=O)[C@H](N)CCC(=O)N3CCCC3)ccc21 [Compound M05375] | > 2000 nM | oo (a fold selectivity value of 10 to 100) | ++ (a fold selectivity value of 10 to 100)

Second part, led by results:

Ki [1] | SMILES | FXa (human)/FXIIa alpha (human) fold selectivity [2] | Thrombin (human)/FXIIa alpha (human) fold selectivity [3]
200 to 2000 nM | O=C(NCc1cc2ccncc2[nH]1)[C@@H]1CN(C(=O)OCc2ccccc2)CCN1C(=O)[C@H]1C[C@@H](c2ccccc2)CN1 [Compound M00950] | oo (a fold selectivity value of 10 to 100) | ++ (a fold selectivity value of 10 to 100)
> 2000 nM | NCc1ccc(CNC(=O)[C@@H]2CN(C(=O)OCc3ccccc3)CCN2C(=O)[C@H](N)CCc2ccccc2)cc1 [Compound M05086] | oo (a fold selectivity value of 10 to 100) | ++ (a fold selectivity value of 10 to 100)
> 2000 nM | Nc1noc2cc(CNC(=O)[C@@H]3CN(C(=O)OCc4ccccc4)CCN3C(=O)[C@H](N)CCc3ccccc3)ccc12 [Compound M05124] | oo (a fold selectivity value of 10 to 100) | + (fold selectivity values less than 10)
200 to 2000 nM | Nc1cc(CNC(=O)[C@@H]2CN(C(=O)OCc3ccccc3)CCN2C(=O)[C@H](N)CCC(=O)N2CCCC2)ccn1 [Compound M05209] | oo (a fold selectivity value of 10 to 100) | +++ (fold selectivity values greater than 100)
> 2000 nM | N[C@H](CCC(=O)N1CCCC1)C(=O)N1CCN(C(=O)OCc2ccccc2)C[C@H]1C(=O)NCc1ccc2[nH]cnc2c1 [Compound M05213] | oo (a fold selectivity value of 10 to 100) | ++ (a fold selectivity value of 10 to 100)
> 2000 nM | CN(C)[C@H](CCC(=O)N1CCCC1)C(=O)N1CCN(C(=O)OCc2ccccc2)C[C@H]1C(=O)NCc1ccc2[nH]cnc2c1 [Compound M05217] | oo (a fold selectivity value of 10 to 100) | ++ (a fold selectivity value of 10 to 100)
> 2000 nM | Cn1nnc2cc(CNC(=O)[C@@H]3CC(Oc4ncccn4)CCN3C(=O)[C@H](N)CCC(=O)N3CCCC3)ccc21 (stereo partly drawn) [Compound M05252] | oo (a fold selectivity value of 10 to 100) | ++ (a fold selectivity value of 10 to 100)
> 2000 nM | Cn1nnc2cc(CNC(=O)[C@@H]3CN(C(=O)OCc4ccccc4)CCN3C(=O)[C@H]3C[C@@H](c4ccccc4)CN3)ccc21 [Compound M05276] | oo (a fold selectivity value of 10 to 100) | ++ (a fold selectivity value of 10 to 100)
> 2000 nM | Cn1nnc2cc(CNC(=O)[C@@H]3C[C@H](c4ccccc4)CCN3C(=O)[C@H](N)CCC(=O)N3CCCC3)ccc21 [Compound M05385] | oo (a fold selectivity value of 10 to 100) | ++ (a fold selectivity value of 10 to 100)
